Measured values reported in patent publication US7951813B2, “Quinazolinone derivatives as ALDH-2 inhibitors” (Gilead Sciences, Inc., priority 2007, dated 2011).
Entries after “also recorded” stand apart in the source; their conditions may differ.

What was measured:
[1] = target: T1, hALDH2 (UniProt P05091); assay: ALDH-2 assay (inhibition of hALDH2); type: biochemical, human
T1 sequence (P05091 1-517): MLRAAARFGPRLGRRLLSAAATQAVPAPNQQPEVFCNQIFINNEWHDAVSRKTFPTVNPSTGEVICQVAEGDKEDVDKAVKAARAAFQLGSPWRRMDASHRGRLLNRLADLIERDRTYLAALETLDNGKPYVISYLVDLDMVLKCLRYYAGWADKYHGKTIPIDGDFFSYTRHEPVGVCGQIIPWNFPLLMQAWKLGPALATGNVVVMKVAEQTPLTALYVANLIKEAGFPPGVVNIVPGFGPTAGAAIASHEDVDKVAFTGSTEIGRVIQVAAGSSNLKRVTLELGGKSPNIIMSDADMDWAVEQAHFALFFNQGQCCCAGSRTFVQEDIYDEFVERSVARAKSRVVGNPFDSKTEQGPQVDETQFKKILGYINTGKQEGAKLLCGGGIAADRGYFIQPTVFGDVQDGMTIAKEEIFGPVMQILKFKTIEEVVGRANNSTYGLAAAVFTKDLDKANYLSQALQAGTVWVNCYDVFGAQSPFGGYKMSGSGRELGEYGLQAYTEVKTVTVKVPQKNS

[2] = target: T2, hMAO-A (UniProt P21397); assay: MAO assay (inhibition of hMAO-A); type: biochemical, human; settings: read-out: IC50 hMAO-A (No inhibition up to 10 μM)
T2 sequence (P21397 1-527): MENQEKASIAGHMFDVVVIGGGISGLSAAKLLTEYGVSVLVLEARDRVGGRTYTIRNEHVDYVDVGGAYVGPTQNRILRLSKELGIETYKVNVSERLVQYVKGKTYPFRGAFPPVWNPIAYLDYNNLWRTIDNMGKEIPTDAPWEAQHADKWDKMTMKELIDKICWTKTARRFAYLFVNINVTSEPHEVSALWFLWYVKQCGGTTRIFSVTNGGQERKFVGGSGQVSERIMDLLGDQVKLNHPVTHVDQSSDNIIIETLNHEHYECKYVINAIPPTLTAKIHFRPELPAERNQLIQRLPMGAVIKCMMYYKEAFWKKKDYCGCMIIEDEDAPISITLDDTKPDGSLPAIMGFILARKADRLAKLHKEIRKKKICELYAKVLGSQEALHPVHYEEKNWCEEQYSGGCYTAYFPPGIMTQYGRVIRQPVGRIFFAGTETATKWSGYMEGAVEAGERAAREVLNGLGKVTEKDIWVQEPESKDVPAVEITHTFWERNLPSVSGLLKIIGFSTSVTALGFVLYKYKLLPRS

[3] = target: T3, hMAO-B (Homo sapiens, UniProt P27338); assay: MAO assay (inhibition of hMAO-B); type: biochemical; settings: read-out: IC50 hMAO-B (No inhibition up to 10 μM)
T3 sequence (P27338 2-520 limits assumed): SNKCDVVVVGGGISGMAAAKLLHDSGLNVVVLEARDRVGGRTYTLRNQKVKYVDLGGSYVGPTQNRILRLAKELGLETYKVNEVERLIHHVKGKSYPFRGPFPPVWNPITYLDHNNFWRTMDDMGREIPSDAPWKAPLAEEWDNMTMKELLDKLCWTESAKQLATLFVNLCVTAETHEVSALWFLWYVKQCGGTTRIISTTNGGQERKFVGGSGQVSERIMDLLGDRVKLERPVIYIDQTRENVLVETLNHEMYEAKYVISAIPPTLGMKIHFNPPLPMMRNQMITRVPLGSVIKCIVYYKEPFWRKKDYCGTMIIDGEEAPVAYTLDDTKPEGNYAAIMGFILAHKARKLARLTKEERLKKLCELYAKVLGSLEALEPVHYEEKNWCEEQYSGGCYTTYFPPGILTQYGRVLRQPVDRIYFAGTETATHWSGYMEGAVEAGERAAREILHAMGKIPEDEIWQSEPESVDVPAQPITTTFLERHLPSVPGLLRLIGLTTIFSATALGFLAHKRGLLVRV

[4] = target: T4, human mitochondrial aldehyde dehydrogenase (ALDH-2) (Homo sapiens, UniProt P05091); settings: background statement, U.S. Pat. Nos. 5,624,910 and 6,121,010; cited from earlier work
T4 sequence (P05091 18-517): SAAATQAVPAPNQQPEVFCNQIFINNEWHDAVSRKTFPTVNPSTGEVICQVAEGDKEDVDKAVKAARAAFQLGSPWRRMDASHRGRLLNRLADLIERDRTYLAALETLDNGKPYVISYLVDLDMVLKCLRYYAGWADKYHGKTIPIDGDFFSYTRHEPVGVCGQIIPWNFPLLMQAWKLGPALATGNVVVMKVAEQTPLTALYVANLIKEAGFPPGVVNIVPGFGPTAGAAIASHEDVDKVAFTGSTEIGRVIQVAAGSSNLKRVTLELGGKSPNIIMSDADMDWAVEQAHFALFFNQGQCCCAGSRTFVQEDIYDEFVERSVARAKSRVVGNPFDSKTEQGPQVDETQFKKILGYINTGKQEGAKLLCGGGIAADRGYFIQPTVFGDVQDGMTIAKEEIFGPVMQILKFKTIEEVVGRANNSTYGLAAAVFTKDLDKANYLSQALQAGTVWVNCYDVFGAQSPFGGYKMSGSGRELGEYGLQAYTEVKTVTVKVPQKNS

[5] = system: Syrian golden hamsters; settings: background statement, Keung and Vallee; U.S. Pat. Nos. 5,624,910 and 6,121,010; cited from earlier work

N#Cc1cccc(-c2nc(COc3ccc4c(=O)n(-c5ccc(O)cc5)cnc4c3)no2)c1 [3-(3-{[3-(4-hydroxyphenyl)-4-oxo-3-hydroquinazolin-7-yloxy]methyl}-1,2,4-oxadiazol-5-yl)benzenecarbonitrile]
hALDH2 % inhibition ([1]; at 1 μM): 25% inhibition at 1 μM | IC50 [2]: > 10 µM | IC50 [3]: > 10 µM

O=c1c2ccc(OCc3noc(-c4cccc(C(F)(F)F)c4)n3)cc2ncn1-c1ccc(O)cc1 [3-(4-hydroxyphenyl)-7-({5-[3-(trifluoromethyl)phenyl](1,2,4-oxadiazol-3-yl)}methoxy)-3-hydroquinazolin-4-one]
IC50 [1]: 0.03 µM | IC50 [2]: > 10 µM | IC50 [3]: > 10 µM

COc1ccc(-c2nc(COc3ccc4c(=O)n(-c5ccc(O)cc5)cnc4c3)no2)cc1C(F)(F)F [3-(4-hydroxyphenyl)-7-({5-[4-methoxy-3-(trifluoromethyl)phenyl](1,2,4-oxadiazol-3-yl)}methoxy)-3-hydroquinazolin-4-one]
IC50 [1]: 0.1 µM | IC50 [2]: > 10 µM | IC50 [3]: > 10 µM

O=c1c2ccc(OCc3noc(-c4ccccc4)n3)cc2ncn1-c1ccc(O)cc1 [3-(4-hydroxyphenyl)-7-[(5-phenyl(1,2,4-oxadiazol-3-yl))methoxy]-3-hydroquinazolin-4-one]
IC50 [1]: 0.107 µM | IC50 [2]: > 10 µM | IC50 [3]: > 10 µM

N#Cc1cccc(COc2ccc3c(=O)n(-c4ccc(O)cc4)cnc3c2)c1 [3-{[3-(4-hydroxyphenyl)-4-oxo-3-hydroquinazolin-7-yloxy]methyl} benzenecarbonitrile]
IC50 [1]: 0.196 µM | IC50 [2]: > 10 µM | IC50 [3]: > 10 µM

NC(=O)c1cccc(COc2ccc3c(=O)n(-c4ccc(O)cc4)cnc3c2)c1 [3-{[3-(4-hydroxyphenyl)-4-oxo-3-hydroquinazolin-7-yloxy]methyl}benzamide]
IC50 [1]: 0.021 µM | IC50 [2]: > 10 µM | IC50 [3]: > 10 µM

O=c1c2ccc(OCc3noc(-c4cc(C(F)(F)F)ccc4C(F)(F)F)n3)cc2ncn1-c1ccc(O)cc1 [7-({5-[2,5-bis(trifluoromethyl)phenyl](1,2,4-oxadiazol-3-yl)}methoxy)-3-(4-hydroxyphenyl)-3-hydroquinazolin-4-one]
IC50 [1]: 0.312 µM | IC50 [2]: > 10 µM | IC50 [3]: > 10 µM

COc1ccccc1-c1nc(COc2ccc3c(=O)n(-c4ccc(O)cc4)cnc3c2)no1 [7-({5-[2-methoxyphenyl](1,2,4-oxadiazol-3-yl)}methoxy)-3-(4-hydroxyphenyl)-3-hydroquinazolin-4-one]
IC50 [1]: 0.09 µM | IC50 [2]: > 10 µM | IC50 [3]: > 10 µM

O=c1c2ccc(OCc3noc(-c4cc(C(F)(F)F)cc(C(F)(F)F)c4)n3)cc2ncn1-c1ccc(O)cc1 [7-({5-[3,5-bis(trifluoromethyl)phenyl](1,2,4-oxadiazol-3-yl)}methoxy)-3-(4-hydroxyphenyl)-3-hydroquinazolin-4-one]
IC50 [1]: 0.07 µM | IC50 [2]: > 10 µM | IC50 [3]: > 10 µM

O=c1c2ccc(OCc3noc(-c4cc(F)cc(C(F)(F)F)c4)n3)cc2ncn1-c1ccc(O)cc1 [7-({5-[5-fluoro-3-(trifluoromethyl)phenyl](1,2,4-oxadiazol-3-yl)}methoxy)-3-(4-hydroxyphenyl)-3-hydroquinazolin-4-one]
IC50 [1]: 0.07 µM | IC50 [2]: > 10 µM | IC50 [3]: > 10 µM

O=c1c(-c2ccc(O)cc2)coc2cc(O[C@@H]3O[C@H](CO)[C@@H](O)[C@H](O)[C@H]3O)ccc12 [Daidzin, daidzin]
inhibition of human mitochondrial ALDH-2 [4]: potent and selective inhibitors

C=CCOC(=O)c1cccc(COc2ccc3c(=O)n(-c4ccc(O)cc4)cnc3c2)c1 [Example 2A, prop-2-enyl 3-{[3-(4-hydroxyphenyl)-4-oxo-3-hydroquinazolin-7-yloxy]methyl} benzoate]
IC50 [1]: 0.196 µM | IC50 [2]: > 10 µM | IC50 [3]: > 10 µM

O=C(O)c1cccc(COc2ccc3c(=O)n(-c4ccc(O)cc4)cnc3c2)c1 [Example 3A, 3-{[3-(4-hydroxyphenyl)-4-oxo-3-hydroquinazolin-7-yloxy]methyl}benzoic acid]
IC50 [1]: 0.136 µM | IC50 [2]: > 10 µM | IC50 [3]: > 10 µM

O=c1c(-c2ccc(O)cc2)coc2cc(O)ccc12 [daidzein]
suppression of ethanol intake [5]: effective in suppressing ethanol intake; also recorded: effective in suppressing ethanol uptake

CC(C)OC(=O)c1cccc(COc2ccc3c(=O)n(-c4ccc(O)cc4)cnc3c2)c1 [methylethyl 3-{[3-(4-hydroxyphenyl)-4-oxo-3-hydroquinazolin-7-yloxy]methyl} benzoate]
IC50 [1]: 0.095 µM | IC50 [2]: > 10 µM | IC50 [3]: > 10 µM
